Experimental data: patent US10450299B2, “Substituted quinazoline derivatives as DNA methyltransferase inhibitors” (Pierre Fabre Medicament, priority 2015, dated 2019)

Assays:
[1] = biological target: T1, human C-terminal DNMT3A (a.a. 623-908) (Homo sapiens, UniProt Q9Y6K1); experiment: DNMT3A assay (restriction-based fluorescence assay); format: biochemical; conditions: for inhibition at 1 µM: compound at 1 μM; for inhibition at 3.2 µM: compound at 3.2 μM
T1 construct: The human C-terminal DNMT3A (a.a. 623-908); made in house
T1 sequence (Q9Y6K1 627-912): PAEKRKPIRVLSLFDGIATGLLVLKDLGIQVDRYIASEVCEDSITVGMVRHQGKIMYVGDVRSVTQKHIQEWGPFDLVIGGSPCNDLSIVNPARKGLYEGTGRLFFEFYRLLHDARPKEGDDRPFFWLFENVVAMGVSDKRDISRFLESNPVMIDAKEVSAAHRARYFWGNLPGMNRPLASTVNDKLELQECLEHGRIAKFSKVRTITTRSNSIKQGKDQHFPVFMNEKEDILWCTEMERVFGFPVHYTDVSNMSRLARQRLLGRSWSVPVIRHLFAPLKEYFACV
Text: DNMT3A enzyme inhibition was adapted from the restriction-based fluorescence assay protocol described in Ceccaldi et al. (ChemBioChem 2011, 12, 1337-45). Briefly, a 5′-labelled biotin oligonucleotide is hybridized to its complementary strand labelled with 6-carboxyfluorescein at the 3′-end into a 384 well microplate (black Optiplates; Perkin Elmer) pre-coated with avidin. The duplex contains a unique CpG site overlapping with a restriction site of a methylation sensitive restriction enzyme. The human C-terminal DNMT3A (a.a. 623-908), produced as described in Gros et al. (Nucleic Acids Research 2013 41(19):e185), was added in each well (200 ng/well) and mixed with the chemical compounds at desired concentrations and freshly prepared AdoMet (20 μM final concentration) to start the reaction in a total volume of 50 μL. After 1 hour incubation at 37° C. each well were washed three times with PBS, Tween-20 0.05%, NaCl (500 mM) and three more times with PBST. Specific fluorescent signals were detected with the methylation-sensitive restriction enzyme HpyCH4IV (NEB) as described and measured on a Perkin Elmer Envision detector. The percentage of inhibition is reported. The formula used to calculate the percentage of inhibition is [(X−Y)/X]×100, where X is the signal determined in the absence of the inhibitor and Y is the signal obtained in the presence of the inhibitor. The concentration at which 50% of efficacy of inhibition is observed (EC50) was determined by analysis of a concentration range of the tested compound in triplicates. The non-linear regression fittings with sigmoidal dose-response (variable slope) were performed with GraphPad Prism 4.03 (GraphPad Software).

[2] = biological target: T2, His-DNMT1 (182 kDa, human) (Homo sapiens, UniProt P26358); experiment: DNMT1 assay (tritiated SAM Flashplate methylation assay); format: biochemical; conditions: for inhibition at 10 µM: compound at 10 μM; for inhibition at 32 µM: compound at 32 μM
T2 construct: His; made in house
T2 sequence (P26358 whole entry): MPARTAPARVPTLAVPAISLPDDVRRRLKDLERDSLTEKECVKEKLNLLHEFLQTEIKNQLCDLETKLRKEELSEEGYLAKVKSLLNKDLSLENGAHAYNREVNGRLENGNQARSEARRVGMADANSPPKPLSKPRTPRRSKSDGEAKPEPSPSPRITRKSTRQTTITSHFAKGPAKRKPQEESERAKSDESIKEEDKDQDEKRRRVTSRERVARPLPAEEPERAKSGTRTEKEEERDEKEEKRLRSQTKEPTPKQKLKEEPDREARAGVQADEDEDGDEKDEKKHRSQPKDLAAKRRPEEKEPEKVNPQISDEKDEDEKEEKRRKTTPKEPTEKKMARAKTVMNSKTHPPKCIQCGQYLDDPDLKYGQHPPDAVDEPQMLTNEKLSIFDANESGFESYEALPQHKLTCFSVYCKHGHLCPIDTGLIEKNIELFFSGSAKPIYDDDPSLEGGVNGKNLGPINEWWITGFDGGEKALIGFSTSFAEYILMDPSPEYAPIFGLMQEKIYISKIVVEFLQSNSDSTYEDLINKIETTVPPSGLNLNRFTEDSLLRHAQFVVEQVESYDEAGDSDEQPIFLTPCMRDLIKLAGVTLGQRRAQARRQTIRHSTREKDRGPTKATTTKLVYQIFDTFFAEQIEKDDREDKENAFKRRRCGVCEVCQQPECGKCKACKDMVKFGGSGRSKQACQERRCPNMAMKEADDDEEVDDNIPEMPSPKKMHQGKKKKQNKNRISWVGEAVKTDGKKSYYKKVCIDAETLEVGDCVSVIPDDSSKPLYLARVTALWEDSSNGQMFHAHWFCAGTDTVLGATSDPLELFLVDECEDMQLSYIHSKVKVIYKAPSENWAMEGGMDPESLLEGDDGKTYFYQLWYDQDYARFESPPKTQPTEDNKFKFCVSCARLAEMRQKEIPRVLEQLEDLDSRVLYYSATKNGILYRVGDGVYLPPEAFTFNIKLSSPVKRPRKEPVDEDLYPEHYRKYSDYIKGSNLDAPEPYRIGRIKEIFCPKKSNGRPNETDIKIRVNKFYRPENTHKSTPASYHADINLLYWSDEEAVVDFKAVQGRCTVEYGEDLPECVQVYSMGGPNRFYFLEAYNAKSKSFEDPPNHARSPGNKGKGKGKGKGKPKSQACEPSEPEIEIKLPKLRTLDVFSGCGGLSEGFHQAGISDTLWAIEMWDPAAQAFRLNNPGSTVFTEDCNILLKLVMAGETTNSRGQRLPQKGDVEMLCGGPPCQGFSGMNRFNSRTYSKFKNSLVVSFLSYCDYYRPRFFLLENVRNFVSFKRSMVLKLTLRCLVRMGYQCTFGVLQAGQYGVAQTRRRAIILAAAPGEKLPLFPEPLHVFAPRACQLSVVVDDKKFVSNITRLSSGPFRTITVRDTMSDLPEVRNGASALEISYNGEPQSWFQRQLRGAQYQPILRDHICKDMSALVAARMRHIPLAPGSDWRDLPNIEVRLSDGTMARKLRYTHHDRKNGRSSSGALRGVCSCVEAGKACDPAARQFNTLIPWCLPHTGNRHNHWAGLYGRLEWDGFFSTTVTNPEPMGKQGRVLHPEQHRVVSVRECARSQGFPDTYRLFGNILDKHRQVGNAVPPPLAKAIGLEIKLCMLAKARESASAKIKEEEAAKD
Protocol: His-DNMT1 (182 kDa, human) was cloned, expressed and purified as described in Halby et al. (ChemBioChem 2012, 13, 157-65). The reaction was performed in a 10 μL total reaction volume in low volume NBS™ 384-well microplates (Corning), containing the tested compound (up to 1% DMSO), 1 μM of a SAM/[methyl-^3H] SAM (3 TBq/mmol, PerkinElmer) mix in a ratio of 3-to-1 (isotopic dilution 1*:3), 0.3 μM of biotinylated hemimethylated DNA duplex (5′-GATmCGCmCGATGmCGmCGAATmCGmCGATmCGATGmCGAT-3′ and BIOT-5′-[…]-3′), and 90 nM of DNMT1 in methylation buffer (20 mM HEPES pH 7.2, 1 mM EDTA, 50 mM KCl, 25 μg/mL BSA). The reaction was incubated at 37° C. for 2 hours. 8 μL are then transferred into a streptavidin 96-well scintillant coated Flashplate™ (PerkinElmer) containing 190 μL of 20 μM SAH in 50 mM Tris-HCl pH 7.4. The Flashplate™ was agitated at room temperature for 1 hour, washed three times with 200 μL of 0.05% Tween®-20 in 50 mM Tris-HCl pH 7.4, and read in 200 μL of 50 mM Tris-HCl pH 7.4 on TopCount NXT™ (PerkinElmer).

[3] = tested on: KG-1 human leukemia cells; experiment: Anti-proliferative activity on KG-1 (ATPLite cell viability); format: cell-based; conditions: KG-1 cells; for inhibition at 0.1 µM: compound at 0.1 μM, read-out: % proliferation inhibition 0.1 μM; for inhibition at 1 µM: compound at 1 μM, read-out: % proliferation inhibition 1 μM; for inhibition at 5 µM: compound at 5 μM, read-out: % proliferation inhibition 5 μM; for inhibition at 10 µM: compound at 10 μM, read-out: % proliferation inhibition 10 μM
Protocol: Anti-Proliferative Activity. (on KG-1)
KG-1 human leukemia cells were obtained from the ATCC (USA) and cultivated in RPMI 1640 medium (with HEPES and Glutamine, BE12-115F, Lonza, France) supplemented with, respectively, 20% and 15% foetal calf serum (Lonza, France), at 37° C. and under 5% CO2. To measure the anti-proliferative properties of tested molecules, 2×10^4 cells are seeded at day 0 in a 96 wells plate. The compounds to be tested, stored at −20° C. as 10^−2 M stock solution in 100% DMSO, are freshly diluted on day 1 in RPMI 1640 medium, before adding a dose range of 3.2 nM to 10 μM to the cells. This treatment is repeated on day 2 and 3, and on day 4 cell viability is assessed using the ATPLite™ kit from Perkin (ATPlite™ 1 Step Luminescence Assay System, ref 3016739), following the provider instructions. The raw data are analyzed with GraphPad Prism software (v4.03) to generate EC50 values corresponding to the compound concentrations giving 50% reduction in cell viability. The values presented are the mean results of at least two independent experiments. […]
At the end of the experiment, cell viability was evaluated by determining the level of ATP released by viable cells.
EC50 values were determined with curve fitting analysis method (non linear regression model with a sigmoid dose response, variable Hill slope coefficient) provided by the Prism Software (GraphPad). Results were expressed as average EC50 values (concentration of tested compound that inhibits 50% of the maximum effect for the considered compound).

[4] = tested on: luciferase reporter gene under the control of the partially methylated CMV promoter in KG-1 cell line; experiment: Gene expression (CMV-Luc reactivation) in KG-1 cells; format: cell-based, human; conditions: 24 h, induction factor vs DMSO control, mean of 3 experiments ± standard error; for Reactivation fold of luciferase gene reporter, 0.1 μM: compound at 0.1 μM; for Reactivation fold of luciferase gene reporter, 1 μM: compound at 1 μM; for Reactivation fold of luciferase gene reporter, 5 μM: compound at 5 μM; for Reactivation fold of luciferase gene reporter, 10 μM: compound at 10 μM
Protocol: Gene Expression. (CMV-Luc Reactivation)
KG-1 cell line, stably transfected with the luciferase Firefly (Luc+ from pGL3 by Promega) reporter gene under the control of the CMV promoter (from pEGFP-N1 by Clontech) partially methylated (50%), is seeded at 20,000 cell per well in 96-well plate. After 24 h of incubation in the presence of the compounds or the solvant DMSO, the induction of the promoter is measured by quantification of luciferase with the Brite-lite™ assay system (Perkin Elmer) according to the manufacturer protocol. The luminescence is measured on EnVision™ Multilabel Plate Reader (Perkin Elmer) and the data are expressed in induction factor compared to the DMSO control condition.

| SMILES | inhibition at 1 µM [1] | inhibition at 3.2 µM [1] | inhibition at 10 µM [2] | inhibition at 32 µM [2] | inhibition at 0.1 µM [3] | inhibition at 1 µM [3] | inhibition at 5 µM [3] | inhibition at 10 µM [3] | Reactivation fold of luciferase gene reporter, 0.1 μM [4] | Reactivation fold of luciferase gene reporter, 1 μM [4] | Reactivation fold of luciferase gene reporter, 5 μM [4] | Reactivation fold of luciferase gene reporter, 10 μM [4] | EC50 [2] | melting point | EC50 [1] | EC50 ([3]; 96 h, treatment on days 1-3, viability on day 4 (ATPLite)) |
| --- | --- | --- | --- | --- | --- | --- | --- | --- | --- | --- | --- | --- | --- | --- | --- | --- |
| Oc1ccc2c(NCCCc3ccccc3)ncnc2c1CN1CCN(CCNc2ccnc3ccccc23)CC1 [Compound A, 4-((3-phenylpropyl)amino)-8-((1-(2-(quinolin-4-ylamino)ethyl)piperazin-1-ylmethyl))quinazoline-7-ol] | 0% | 18% | 0% | 0% | -0.8% | 6.1% | 29.7% | 84.5% | 1.1 ± 0.1 fold | 1.2 ± 0.1 fold | 4.4 ± 0.5 fold | 6.0 ± 0.6 fold | – | – | – | – |
| Clc1nc(NCCCc2ccccc2)c2ccc(OCC3CCN(CCNc4ccnc5ccccc45)CC3)cc2n1 [Compound B, 4-((3-phenylpropyl)amino)-2-chloro-7-((1-(2-(quinolin-4-ylamino)ethyl)piperidin-4-yl)methoxy)quinazoline] | 0% | 73% | 5% | 93% | -1.7% | 3.8% | 95.9% | 99.9% | 1.1 ± 0.0 fold | 1.4 ± 0.0 fold | 5.8 ± 1.6 fold | 0.0 ± 0.0 fold | 19 µM | – | – | – |
| CN1CCN(c2nc(NCCCc3ccccc3)c3ccc(OCC4CCN(CCNc5ccnc6ccccc56)CC4)cc3n2)CC1 [Compound C, 4-((3-phenylpropyl)amino)-7-((1-(2-(quinolin-4-ylamino)ethyl)piperidin-4-yl)methoxy)-2-(4-methylpiperazin-1-yl)quinazoline] | 0% | 43% | 0% | 94% | -3.1% | 5.7% | 99.1% | 99.7% | 1.1 ± 0.0 fold | 1.7 ± 0.1 fold | 0.1 ± 0.0 fold | 0.0 ± 0.0 fold | 23 µM | – | – | – |
| CCN(CC)CCNc1nc(NCCCc2ccccc2)c2ccc(OCC3CCN(CCNc4ccnc5ccccc45)CC3)cc2n1 [Compound D, 4-((3-phenylpropyl)amino)-N^2-(2-(diethylamino)ethylenediamine)-7-((1-(2-(quinolin-4-ylamino)ethyl)piperidin-4-yl)methoxy)quinazoline] | 52% | 81% | 35% | 98% | -2.3% | 13.2% | 79.7% | 99.5% | 1.1 ± 0.0 fold | 1.7 ± 0.0 fold | 12.7 ± 0.6 fold | 1.1 ± 1.0 fold | 13 µM | – | – | – |
| c1ccc(CN2CCC(Nc3nc(N4CCN(c5ccccc5)CC4)nc4cc(OCC5CCN(CCNc6ccnc7ccccc67)CC5)ccc34)CC2)cc1 [Compound G, N-(1-benzylpiperidin-4-yl)-2-(4-phenylpiperazin-1-yl)-7-((1-(2-(quinolin-4-ylamino)ethyl)piperidin-4-yl)methoxy)quinazolin-4-amine] | 57% | 95% | 54% | 100% | -2.2% | 32.2% | 99.6% | 99.8% | 1.1 ± 0.0 fold | 5.3 ± 0.4 fold | 0.2 ± 0.1 fold | 0.0 ± 0.0 fold | 10 µM | 122 to 124 °C | – | – |
| Clc1nc(NCCCc2ccccc2)c2ccc(OCC3CCN(CCNc4ccncc4)CC3)cc2n1 [Compound H] | 0% | 32% | – | – | – | – | – | – | – | – | – | – | – | – | – | – |
| COc1cc2c(NC3CCN(Cc4ccccc4)CC3)nc(N3CCN(c4ccccc4)CC3)nc2cc1OCC1CCN(CCNc2ccnc3ccccc23)CC1 [E, N-(1-benzylpiperidin-4-yl)-6-methoxy-2-(4-phenylpiperazin-1-yl)-7-((1-(2-(quinolin-4-ylamino)ethyl)piperidin-4-yl)methoxy)quinazolin-4-amine] | 74% | 100% | 59% | 100% | -2.3% | 15.4% | 92.1% | 99.8% | 1.1 ± 0.0 fold | 3.5 ± 0.0 fold | 1.3 ± 1.2 fold | 0.0 ± 0.0 fold | 10 µM | 124 to 126 °C | 0.6 µM | 2.5 µM |
